# In patent publication US6900200B2, “Tricyclic hydroxy carboxamides and derivatives thereof tocolytic oxytocin receptor antagonists” (Wyeth, priority 2001, dated 2005):
# Target: T1, human oxytocin receptor (Homo sapiens, UniProt P30559)
# T1 construct: host or cells: CHO cells, pcDNA3.1 vector
# T1 sequence (P30559 1-389): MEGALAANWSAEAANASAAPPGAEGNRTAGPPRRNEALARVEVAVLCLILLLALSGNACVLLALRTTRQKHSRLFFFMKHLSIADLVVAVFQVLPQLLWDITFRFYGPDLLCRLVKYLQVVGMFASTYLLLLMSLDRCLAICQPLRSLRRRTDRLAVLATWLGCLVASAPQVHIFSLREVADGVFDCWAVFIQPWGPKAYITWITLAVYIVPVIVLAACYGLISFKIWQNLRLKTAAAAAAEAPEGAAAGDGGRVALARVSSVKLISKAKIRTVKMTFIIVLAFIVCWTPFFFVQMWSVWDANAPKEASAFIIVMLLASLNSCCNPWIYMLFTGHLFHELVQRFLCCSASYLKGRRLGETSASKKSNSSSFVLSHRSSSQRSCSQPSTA
# Experiment: Oxytocin binding in CHO cell membranes expressing human oxytocin receptors ([3H]oxytocin radioligand binding)
# Conditions: @ 100 nM, read-out: OT % inhibition @ 100 nM
# Excerpt: Oxytocin Binding in Chinese Hamster Ovary Cell Membranes Expressing Human Oxytocin Receptors
# Chinese Hamster Ovary (CHO) cells stably transfected with the human oxytocin receptor (cf. Tanizawa et al., U.S. Pat. No. 5,466,584 (1995) to Rohto Pharmaceutical Co. Ltd., Osaka, Japan) were obtained from M. Thibonnier, Case Western Reserve University School of Medicine, Cleveland, Ohio.
# A. Passaging and Amplification of Cells
# CHO cells transfected with the human oxytocin receptors obtained from M. Thibonnier (pcDNA3.1 vector) are allowed to grow to confluency (approx. >90%) in T-150 flasks under sterile conditions, in a cell culture medium of F-12 Nutrient Mixture (HAM) with L-glutamine (Gibco Cat. #11765-054) containing 15 mM HEPES (Gibco Cat. #15630-080), 1% antibiotic/antimycotic (add 5 mL 100×, Gibco Cat. #15240-062 per 500 mL F-12), 400 μg/mL of Geneticin (add 4 mL of 50 mg/mL per 500 mL F-12) and 10% Fetal Bovine Serum (Qualified, heat inactivated, Gibco Cat. #16140-063). The medium is removed by aspiration and the cells are washed with 10 mL of Hank's Balanced Salt solution (Gibco Cat. #14175-095). The salt solution is removed by aspiration and the cells trypsinized with 5 mL of trypsin-EDTA (0.05% trypsin, 0.53 mM EDTA-4Na, Gibco Cat. #25300-070) for 1 min. The trypsin is removed by aspiration and the cells dislodged by tapping. Cell Culture medium (e.g. 30 mL for 1:30 split) is immediately added and mixed well to inactivate trypsin. 1 mL of detached cells is added to new culture flasks containing fresh Cell Culture medium (e.g. into 25 mL per T-150 flask), and mixed gently. The cells are incubated at 37° C. in 5% CO2. The medium is changed at 3 to 4 days interval (or as appropriate). The cells grow to confluency (approx. >75%-95%) within 7-8 days. All steps are done under sterile conditions.
# The cells are washed twice gently with Hank's Balanced Salt solution (e.g., use 10 mL per T-1 50 flask). The excess solution is removed and the cells bathed for 15-30 min. in an enzyme-free Cell Dissociation Buffer (e.g., use 8 mL Hank's Based, Gibco Cat. #13150-016 per T-150 flask) until cells are loosened. The contents are transferred to centrifuge tubes (50 mL size) kept in ice bath. All subsequent steps are done at 4° C. The tubes are centrifuged at 300×g for 15 min (1380 rpm on SORVAL, Model RT6000D, using rotor for 50 mL tubes). The supernatant is discarded and the cells suspended in homogenizing buffer (10 mM Tris-HCl containing 0.25 M sucrose and 1 mM EDTA, pH 7.4) ensuring that the volume of the buffer is about ten times the volume of the cell pellet. The cells are pooled into a centrifuge tube (50 mL) and homogenized with a Polytron at setting 6 for 10 sec. The homogenate is transferred into a Potter-Elvjehm homogenizer and homogenized with 3 strokes. The homogenate is centrifuged at 1500×g for 10 min at 4° C. (3100 rpm using SORVAL, model RT6000D, using rotor for 50 mL tubes). The pellet is discarded. The supernatant is centrifuged at 100,000×g for 60 min. at 4° C. (Beckman L8-80M ultracentrifuge; spin at 37,500 rpm with rotor type 70 Ti for 50 mL tubes; 38,000 rpm with type 80Ti for 15 mL tubes; or 35,800 rpm with rotor type 45Ti). The supernantant is discarded and the pellet suspended in 3 to 4 mL of Tris buffer (50 mM TRIS—HCl, pH 7.4). The protein content is estimated by the Bradford or Lowry method. The volume of the membrane suspension is adjusted with the membrane buffer (50 mM Tris-HCl containing 0.1% BSA and 0.1 mM PMSF) to give 3.0 mg/mL (or as appropriate) of protein. The membranes are aliquoted and stored at −70° C.
# C. Radioligand Binding Assay
# In wells of a 96-well format microtiter plate, is added 90, 110 or 130 μL (to make up a final volume of 200 μL) of assay buffer containing 50 mM of Tris-HCl (pH 7.4), […], 1 mg % aprotinin, 1 mg % leupeptin, 2 mg % 1,10-phenanthroline, 10 mg % trypsin inhibitor, and 0.1 mM PMSF. […]
row,SMILES,inhibition at 0.1 µM
1,"COc1cc(C(=O)N2Cc3ccc(C(=O)N4CCN(CCO)CC4)n3Cc3ccccc32)ccc1-c1ccccc1C [Example 42, [4-(2-Hydroxyethyl)-1-piperazinyl]{10-[(2-methoxy-2′-methyl[1,1′-biphenyl]-4yl)carbonyl]-10,11-dihydro-5H-pyrrolo[2,1-c][1,4]benzodiazepin-3-yl}methanone]",89%
2,"COc1cccc(-c2cc(OC)c(C(=O)N3Cc4ccc(C(=O)N5CCN(CCO)CC5)n4Cc4ccccc43)cc2Cl)c1 [Example 49, {10-[(6-Chloro-3,3′-dimethoxy[1,1′-biphenyl]-4-yl)carbonyl]-10,11-dihydro-5H-pyrrolo[2,1-c][1,4]benzodiazepin-3-yl}[4-(2-hydroxyethyl)-1-piperazinyl]methanone]",81%
3,"COc1ccccc1-c1ccc(C(=O)N2Cc3ccc(C(=O)N4CCN(CCO)CC4)n3Cc3ccccc32)cc1OC [Example 43, {10-[(2,2′-Dimethoxy[1,1′-biphenyl]-4-yl)carbonyl]-10,11-dihydro-5H-pyrrolo[2,1-c][1,4]benzodiazepin-3-yl}[4-(2-hydroxyethyl)-1-piperazinyl]methanone]",75%
4,"COc1cc(C(=O)N2Cc3ccc(C(=O)N4CCN(CCO)CC4)n3Cc3ccccc32)ccc1-c1cccc2ccccc12 [Example 41, [4-(2-Hydroxyethyl)-1-piperazinyl]{10-[3-methoxy-4-(1-naphthyl)benzoyl]-10,11-dihydro-5H-pyrrolo[2,1-c][1,4]benzodiazepin-3-yl}methanone]",71%
5,"COc1cc(C(=O)N2Cc3ccc(C(=O)N4CCN(CCO)CC4)n3Cc3ccccc32)ccc1-n1c(C)ccc1C [Example 52, {10-[4-(2,5-Dimethyl-1H-pyrrol-1-yl)-3-methoxybenzoyl]-10,11-dihydro-5H-pyrrolo[2,1-c][1,4]benzodiazepin-3-yl}[4-(2-hydroxyethyl)-1-piperazinyl]methanone]",36%

# More lines, now with the values ahead:
row,inhibition at 0.1 µM,SMILES
1,97%,"Cc1ccccc1-c1ccc(C(=O)N2Cc3ccc(C(=O)N4CCN(CCO)CC4)n3Cc3ccccc32)cc1C [Example 46, {10-[(2,2′-Dimethyl[1,1′-biphenyl]-4-yl)carbonyl]-10,11-dihydro-5H-pyrrolo[2,1-c][1,4]benzodiazepin-3-yl}[4-(2-hydroxyethyl)-1-piperazinyl]methanone]"
2,93%,"COc1ccccc1-c1ccc(C(=O)N2Cc3ccc(C(=O)N4CCN(CCO)CC4)n3Cc3ccccc32)cc1C [Example 40, [4-(2-Hydroxyethyl)-1-piperazinyl]{10-[(2′-methoxy-2-methyl[1,1′-biphenyl]-4yl)carbonyl]-10,11-dihydro-5H-pyrrolo[2,1-c][1,4]benzodiazepin-3-yl}methanone]"

# Same assay, conditions: value printed in parentheses, read-out: OT (IC50)
row,SMILES,IC50
1,"Cc1cc(C(=O)N2Cc3ccc(C(=O)NC(CO)(CO)CO)n3Cc3ccccc32)ccc1-c1ccccc1C(F)(F)F [Example 3, 10-[(2-Methyl-2′-trifluoromethyl-[1,1′-biphenyl]-4-yl)carbonyl]-10,11-dihydro-5H-pyrrolo[2,1-c][1,4]benzodiazepine-3-carboxylic acid (2-hydroxy-1,1-bis-hydroxymethyl-ethyl)-amide]",6.53 nM
2,"Cc1cc(C(=O)N2Cc3ccc(C(=O)N(C)C[C@@H]4OC(=O)O[C@H]4[C@H](O)[C@H]4COC(=O)O4)n3Cc3ccccc32)ccc1-c1ccccc1C(F)(F)F [Example 12, N-[((4S,5S)-5-{(R)-Hydroxy[(4R)-2-oxo-1,3-dioxolan-4-yl]methyl}-2-oxo-1,3-dioxolan-4-yl)methyl]-N-methyl-10-{[2-methyl-2′-(trifluoromethyl)[1,1′-biphenyl]-4-yl]carbonyl}-10,11-dihydro-5H-pyrrolo[2,1-c]benzodiazepine-3-carboxamide]",4.27 nM
3,"COc1ccccc1-c1ccc(C(=O)N2Cc3ccc(C(=O)N(C)C[C@H](O)[C@@H](O)[C@H](O)[C@H](O)CO)n3Cc3ccccc32)cc1C [Example 17, 10-[(2′-Methoxy-2-methyl-[1,1′-biphenyl]-4-yl)carbonyl]-10,11-dihydro-5H-pyrrolo[2,1-c][1,4]benzodiazepine-3-carboxylic acid methyl-[(2S,3R,4R, 5R)-2,3,4,5,6-pentahydroxy-hexyl)-amide]",1.03 nM
4,"Cc1cc(C(=O)N2Cc3ccc(C(=O)N(C)CC4COC(=O)O4)n3Cc3ccccc32)ccc1-c1ccccc1C(F)(F)F (stereo not drawn) [Example 11, 10-[(2-Methyl-2′-trifluoromethyl-[1,1′-biphenyl]-4-yl)carbonyl]-10,11-dihydro-5H-pyrrolo[2,1-c][1,4]benzodiazepine-3-carboxylic acid methyl-[(2-oxo-[1,3]dioxolan-4-yl)methyl]-amide]",3.66 nM

# Further lines, results first:
row,IC50,SMILES
1,1.37 nM,"Cc1cc(C(=O)N2Cc3ccc(C(=O)N(CCO)CCO)n3Cc3ccccc32)ccc1-c1ccccc1C(F)(F)F [Example 1, 10-[(2-Methyl-2′-trifluoromethyl-[1,1′-biphenyl]-4-yl)carbonyl]-10,11-dihydro-5H-pyrrolo[2,1-c][1,4]benzodiazepine-3-carboxylic acid bis-(2-hydroxy-ethyl)-amide]"
2,55.8 nM,"Cc1ccc(-c2ccc(C(=O)N3Cc4ccc(C(=O)N(C)CC(O)CO)n4Cc4ccccc43)cc2)c2ccccc12 (stereo not drawn) [Example 26, 10-{[4-(4-Methyl-naphthalen-1-yl)phenyl]carbonyl}-10,11-dihydro-5H-pyrrolo[2,1-c][1,4]benzodiazepine-3-carboxylic acid (2,3-dihydroxy-propyl)-N-methylamide]"
3,1.09 nM,"COc1cc(-c2ccccc2C(F)(F)F)c(Cl)cc1C(=O)N1Cc2ccc(C(=O)N(C)C[C@H](O)[C@@H](O)[C@H](O)[C@H](O)CO)n2Cc2ccccc21 [Example 20, 10-{[6-Chloro-3-methoxy-2′-trifluoromethyl-[1,1′-biphenyl]-4-yl]carbonyl}-N-methyl-N-[(2S,3R,4R,5R)-2,3,4,5,6-pentahydroxyhexyl]-10,11-dihydro-5H-pyrrolo[2,1-c][1,4]benzodiazepine-3-carboxamide]"
4,1.9 nM,"COc1ccccc1-c1ccc(C(=O)N2Cc3ccc(C(=O)N(C)CC(O)CO)n3Cc3ccccc32)cc1C (stereo not drawn) [Example 14, 10-[(2′-Methoxy-2-methyl-[1,1′-biphenyl]-4-yl)carbonyl]-10,11-dihydro-5H-pyrrolo[2,1-c][1,4]benzodiazepine-3-carboxylic acid (2,3-dihydroxy-propyl)-methyl-amide]"
